Values joined by “and” are separate entries in the source; they are usually repeats but may differ in a detail not shown here. Equal entries are not always repeated. Inconclusive results and toxic doses are left out. Rule as the data show it: active = T/C of 150% or more; inactive = T/C below 125%.
Tested on: L1210 leukemia ip in BDF1 mice, survival T/C
Experiment: NCI In Vivo Anticancer Drug Screen. Data for tumor model L1210 Leukemia (intraperitoneal) in B6D2F1 (BDF1) mice
Conditions: endpoint: mean survival time, higher = longer survival
How it was run: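 In this screen, tumor-bearing mice given compound are compared to those given vehicle, and their survival values are reported as a treated-to-control quotient.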

[1] = dose: 100.0 mg/kg/injection, schedule: Q01DX009 (ip), vehicle: saline
[2] = dose: 200.0 mg/kg/injection, schedule: Q01DX009 (ip), vehicle: saline
[3] = dose: 400.0 mg/kg/injection, schedule: Q01DX009 (ip), vehicle: saline
[4] = dose: 100.0 mg/kg/injection, schedule: Q01DX009 (ip), vehicle: Klucel (hydroxypropylcellulose) (HPC)
[5] = dose: 200.0 mg/kg/injection, schedule: Q01DX009 (ip), vehicle: Klucel (hydroxypropylcellulose) (HPC)
[6] = dose: 100.0 mg/kg/injection, schedule: Q01DX001 (ip), vehicle: saline
[7] = dose: 200.0 mg/kg/injection, schedule: Q01DX001 (ip), vehicle: saline
[8] = dose: 400.0 mg/kg/injection, schedule: Q01DX001 (ip), vehicle: saline
[9] = dose: 100.0 mg/kg/injection, schedule: Q01DX001 (ip), vehicle: Klucel (hydroxypropylcellulose) (HPC)
[10] = dose: 50.0 mg/kg/injection, schedule: Q01DX001 (ip), vehicle: saline
[11] = dose: 100.0 mg/kg/injection, schedule: Q04DX003 (ip), vehicle: saline
[12] = dose: 200.0 mg/kg/injection, schedule: Q04DX003 (ip), vehicle: saline

Measured: T/C

CC[C@]1(O)C[C@H](OC2CC(N(C)C)C(OC3CC(O)C(O)C(C)O3)C(C)O2)c2c(cc3c(c2O)C(=O)c2c(O)ccc(O)c2C3=O)[C@H]1C(=O)OC (stereo partly specified)
inactive: dose: 0.2 mg/kg/injection, schedule: Q04DX002 (ip), vehicle: Klucel (hydroxypropylcellulose) (HPC) 104 % of control | dose: 0.4 mg/kg/injection, schedule: Q01DX001 (ip), vehicle: Klucel (hydroxypropylcellulose) (HPC) 108 % of control | dose: 0.4 mg/kg/injection, schedule: Q04DX002 (ip), vehicle: Klucel (hydroxypropylcellulose) (HPC) 114 % of control | dose: 0.8 mg/kg/injection, schedule: Q01DX001 (ip), vehicle: Klucel (hydroxypropylcellulose) (HPC) 105 % of control | dose: 0.8 mg/kg/injection, schedule: Q04DX002 (ip), vehicle: Klucel (hydroxypropylcellulose) (HPC) 107 % of control | dose: 1.6 mg/kg/injection, schedule: Q01DX001 (ip), vehicle: Klucel (hydroxypropylcellulose) (HPC) 111 % of control | dose: 1.6 mg/kg/injection, schedule: Q04DX002 (ip), vehicle: Klucel (hydroxypropylcellulose) (HPC) 107 % of control | dose: 3.2 mg/kg/injection, schedule: Q01DX001 (ip), vehicle: Klucel (hydroxypropylcellulose) (HPC) 116 % of control | dose: 6.4 mg/kg/injection, schedule: Q01DX001 (ip), vehicle: Klucel (hydroxypropylcellulose) (HPC) 120 % of control

O=C(O)C1C2CC3OC(=O)C1C3C2O (stereo unspecified)
inactive: [1] 103 % of control | dose: 100.0 mg/kg/injection, schedule: Q04DX003 (ip), vehicle: saline with Tween-80 96 % of control | [2] 94 % of control | dose: 200.0 mg/kg/injection, schedule: Q04DX003 (ip), vehicle: saline with Tween-80 86 % of control | [3] 100 % of control | dose: 400.0 mg/kg/injection, schedule: Q04DX003 (ip), vehicle: saline with Tween-80 86 % of control

COC(=O)C1C2CCCCC2(C)CC12SCCS2 (stereo unspecified)
inactive: dose: 100.0 mg/kg/injection, schedule: Q04DX002 (ip), vehicle: Klucel (hydroxypropylcellulose) (HPC) 107 % of control | dose: 200.0 mg/kg/injection, schedule: Q04DX002 (ip), vehicle: Klucel (hydroxypropylcellulose) (HPC) 107 % of control | dose: 400.0 mg/kg/injection, schedule: Q04DX002 (ip), vehicle: Klucel (hydroxypropylcellulose) (HPC) 93 % of control

N#[N+]c1c([O-])[nH]c(=O)[nH]c1=O
inactive: dose: 50.0 mg/kg/injection, schedule: Q01DX009 (ip), vehicle: Klucel (hydroxypropylcellulose) (HPC) 95 % of control | [4] 107 % of control | [5] 88 % of control

Oc1ccccc1C=Nc1ccc(Cc2ccc(N=Cc3ccccc3O)cc2)cc1
inactive: [6] 96 % of control | dose: 150.0 mg/kg/injection, schedule: Q04DX003 (ip), vehicle: other 104 % of control | [7] 90 % of control | dose: 300.0 mg/kg/injection, schedule: Q04DX003 (ip), vehicle: other 86 % of control | [8] 90 % of control

O=c1ccn2c(n1)OC1C(O)C(CO)OC12 (stereo unspecified)
inactive: dose: 100.0 mg/kg/injection, schedule: Q01DX005 (ip), vehicle: saline 103 % of control | [1] 97 % of control | dose: 200.0 mg/kg/injection, schedule: Q01DX005 (ip), vehicle: saline 111 % of control | [2] 109 % of control | [3] 101 % of control

Cc1cc(=O)[nH]c(=O)n1Cc1ccccc1
inactive: [9] 117 % of control | dose: 200.0 mg/kg/injection, schedule: Q01DX001 (ip), vehicle: Klucel (hydroxypropylcellulose) (HPC) 117 % of control | dose: 400.0 mg/kg/injection, schedule: Q01DX001 (ip), vehicle: Klucel (hydroxypropylcellulose) (HPC) 122 % of control

CCCCCSP(=O)(SCCCCC)c1ccccc1
inactive: [4] 91 % of control | [5] 94 % of control

O=C(O)COc1cc(Cl)c(Cl)cc1Cl (tested in a mixture with another compound)
inactive: dose: 25.0 mg/kg/injection, schedule: Q01DX001 (ip), vehicle: saline 110 % of control | [10] 93 % of control

C[As+]1(N)c2ccccc2Nc2ccccc21
inactive: [6] 86 % of control | [7] 93 % of control | [8] 91 % of control

COC(=O)/C=C\C(=O)O
inactive: [11] 88 % of control | [12] 88 % of control

CC(=O)C[n+]1ccccc1
inactive: [6] 106 % of control and 97 % of control | dose: 100.0 mg/kg/injection, schedule: Q01DX009 (ip), vehicle: acetone 96 % of control | [7] 100 % of control and 95 % of control | dose: 200.0 mg/kg/injection, schedule: Q01DX009 (ip), vehicle: acetone 105 % of control | [8] 89 % of control and 97 % of control | dose: 400.0 mg/kg/injection, schedule: Q01DX009 (ip), vehicle: acetone 89 % of control

CCCC/C=N\NC(=S)NCCCCCCCCCCCCCCCCCC
inactive: dose: 200.0 mg/kg/injection, schedule: Q01DX Z (ip), vehicle: saline 94 % of control | dose: 300.0 mg/kg/injection, schedule: Q01DX Z (ip), vehicle: saline 103 % of control | dose: 450.0 mg/kg/injection, schedule: Q01DX Z (ip), vehicle: saline 95 % of control | dose: 675.0 mg/kg/injection, schedule: Q01DX Z (ip), vehicle: saline 90 % of control

N=C(N)N/N=C(/c1ccccc1)c1ccc(Oc2ccc(/C(=N/NC(=N)N)c3ccccc3)cc2)cc1
inactive: dose: 60.0 mg/kg/injection, schedule: Q01DX Z (oral), vehicle: methylcellulose (MC) 95 % of control | dose: 240.0 mg/kg/injection, schedule: Q01DX Z (ip), vehicle: methylcellulose (MC) 101 % of control | dose: 240.0 mg/kg/injection, schedule: Q01DX Z (oral), vehicle: methylcellulose (MC) 97 % of control | dose: 360.0 mg/kg/injection, schedule: Q01DX Z (ip), vehicle: methylcellulose (MC) 102 % of control | dose: 480.0 mg/kg/injection, schedule: Q01DX Z (ip), vehicle: methylcellulose (MC) 101 % of control | dose: 480.0 mg/kg/injection, schedule: Q01DX Z (oral), vehicle: methylcellulose (MC) 111 % of control

O=C1CCCCCC/C(=N/O)CCCO1
inactive: dose: 100.0 mg/kg/injection, schedule: Q01DX001 (ip), vehicle: saline with Tween-80 94 % of control | dose: 200.0 mg/kg/injection, schedule: Q01DX001 (ip), vehicle: saline with Tween-80 97 % of control | dose: 400.0 mg/kg/injection, schedule: Q01DX001 (ip), vehicle: saline with Tween-80 97 % of control

CC(=O)c1c(C)cc(C)nc1C
inactive: [6] 96 % of control | [7] 102 % of control

CC[N+](C)(CC)CCOC(=O)C1C2CC3OC(=O)C1C3C2 (stereo unspecified)
inactive: [11] 108 % of control | [12] 112 % of control

Cc1ccc(N=NN(C)CC#N)cc1
inactive: dose: 25.0 mg/kg/injection, schedule: Q04DX003 (ip), vehicle: other 96 % of control | dose: 50.0 mg/kg/injection, schedule: Q04DX003 (ip), vehicle: other 96 % of control | dose: 100.0 mg/kg/injection, schedule: Q04DX003 (ip), vehicle: other 93 % of control and 105 % of control

CCCCCC1OC1C/C=C/CCCCCCCC(=O)OCC(COC(=O)CCCCCCC/C=C/CC1OC1CCCCC)OC(=O)CCCCCCC/C=C/CC1OC1CCCCC (stereo unspecified)
inactive: [6] 109 % of control | [7] 95 % of control | [8] 97 % of control

Nc1ncnc(N)c1NC(=O)CCCCc1ccccc1
inactive: [11] 100 % of control | [12] 92 % of control | dose: 400.0 mg/kg/injection, schedule: Q04DX003 (ip), vehicle: saline 100 % of control

Clc1cccc2ccc(-c3cc4ccccc4s3)nc12
inactive: [10] 102 % of control | [6] 101 % of control | [7] 101 % of control | [8] 106 % of control

CCN(CC)CCNC(=O)c1ccc(N=Cc2cc(Cl)cc(Cl)c2O)cc1
inactive: [4] 100 % of control | [5] 96 % of control

O=C(O)C1CO1 (stereo unspecified)
inactive: dose: 100.0 mg/kg/injection, schedule: Q01DX001 (ip), vehicle: acetone 102 % of control | dose: 200.0 mg/kg/injection, schedule: Q01DX001 (ip), vehicle: acetone 98 % of control | dose: 400.0 mg/kg/injection, schedule: Q01DX001 (ip), vehicle: acetone 101 % of control

N#CC(C#N)=Cc1c(Cl)cccc1Cl
inactive: dose: 6.25 mg/kg/injection, schedule: Q01DX001 (ip), vehicle: Klucel (hydroxypropylcellulose) (HPC) 96 % of control | dose: 6.25 mg/kg/injection, schedule: Q04DX003 (ip), vehicle: Klucel (hydroxypropylcellulose) (HPC) 94 % of control | dose: 12.5 mg/kg/injection, schedule: Q01DX001 (ip), vehicle: Klucel (hydroxypropylcellulose) (HPC) 103 % of control | dose: 12.5 mg/kg/injection, schedule: Q04DX003 (ip), vehicle: Klucel (hydroxypropylcellulose) (HPC) 114 % of control | dose: 25.0 mg/kg/injection, schedule: Q01DX001 (ip), vehicle: Klucel (hydroxypropylcellulose) (HPC) 96 % of control and 109 % of control | dose: 25.0 mg/kg/injection, schedule: Q04DX003 (ip), vehicle: Klucel (hydroxypropylcellulose) (HPC) 97 % of control | [9] 105 % of control

From PubChem BioAssay AID248 (DTP/NCI, 2004)
